Consider one compound from US7888395B2, “STAT3 phosphorylation inhibitor and notch1 expression inhibitor” (Meiji Dairies Corporation, priority 2004, dated 2011).

For assay [1], the system named is Notch1. Kind of assay: Gene expression test, RT-PCR analysis of Notch1. Format: cell-based, mouse, rat. The settings on record: treated relative to untreated cells, normalized toward GAPDH. How it is done: (§1) In ethanol, 2,4,4-trimethyl-3-(15-hydroxypentadecyl)-2-cyclohexen-1-one synthesized by the method described in JP-A-2000-297034 was dissolved to give a concentration of 10^−2 M. The solution was added to a culture solution in a desirable concentration to be final dilution of 1 μl/ml. At different times and different periods in cell culture, 2,4,4-trimethyl-3-(15-hydroxypentadecyl)-2-cyclohexen-1-one was added. […] Each experiment was repeated at least three times.
(§2) Protocol was adapted from Grandbarbe et al., Development (2003) 130, 1393-1402. When briefly explained, as described in Tropepe et al., Dev. Biol. (1999) 208, 166-188, primary neurospheres were prepared from telencephalon of wild-type embryo (E14.5) and were maintained as secondary neurospheres by continuous subculture in a serum-free medium (Reynolds and Weiss, Science (1992) 255, […]) containing 10 ng/ml EGF. After propagation for different times, 50 to 100 neurospheres were inoculated to a polyornithine (Sigma)-coated cover slip in the presence of 2 ng/ml EGF and 0.5% FBS and differentiated. […]
(§3) Typical cycle conditions were 94° C. for 30 seconds, 55° C. for 30 seconds, and 72° C. for 30 seconds except for HES-5 whose program was 94° C. for 30 seconds, 63° C. for 30 seconds, and 72° C. for 2 minutes. […] The relative amount of mRNA was quantitatively determined in accordance with BabyImager analysis and NIHimage 1.36.

Assay [2] relates to Notch receptors (Notch 2 to 4). Kind of assay: Gene expression test, RT-PCR analysis of the other Notch receptors. It is filed as cell-based, mouse, rat. As to conditions: treated relative to untreated cells, normalized toward GAPDH. The procedure: as §1, §2, §3
The subject of assay [3] is HES5. Kind of assay: Gene expression test, RT-PCR analysis of HES5. The settings on record: treated relative to untreated cells, normalized toward GAPDH. It is filed as cell-based, mouse, rat. The procedure: as §1, §2, §3
Assay [4] relates to STAT3. The experiment in a line: Western Blot of STAT3 phosphorylation. It is filed as cell-based. As to conditions: 10^−8 M solution, compared with control without compound, FIG. 2. How it is done:
After preparation of 2,4,4-trimethyl-3-(15-hydroxypentadecyl)-2-cyclohexen-1-one solution (10^−8 M), Western Blot was performed using STAT3 and phosphorylated STAT3 antibody (STAT3 antibody derived from rabbit, manufactured by Cell Signaling) to confirm the action of 2,4,4-trimethyl-3-(15-hydroxypentadecyl)-2-cyclohexen-1-one on STAT3 phosphorylation.
On the technique in general: A western blot detects proteins with antibodies after separation by electrophoresis.

Assay [5] relates to 3T3 Ras transformed fibroblast. The experiment in a line: In vitro test, neoplastic foci of 3T3 Ras transformed fibroblast. As to conditions: 10^−6M, compared with untreated cell, FIG. 3. It is filed as cell-based, mouse. How it is done:
When 3T3 Ras transformed fibroblast was cultured in 10% FBS-containing DMEM medium for 3 days, appearance of “foci” is observed as compared with non-transformed cell strains.
Each of 3T3 Ras transformed fibroblast (derived from mouse) or 3T3 fibroblast (derived from mouse) each is cultured at a concentration of 10,000 cell/ml in 10% FBS-containing DMEM medium for 1 day.
Thereafter, each cell is treated with 10^−5M 2,4,4-trimethyl-3-(15-hydroxypentadecyl)-2-cyclohexen-1-one for 6 days.
3T3 Ras transformed fibroblast or 3T3 fibroblast is cultured at a concentration of 10,000 cell/ml in 5% FBS-containing DMEM medium which contains 0.625% agar (DIFCO) and 10^−6 M 2,4,4-trimethyl-3-(15-hydroxypentadecyl)-2-cyclohexen-1-one.
(§4) The fibroblast transformed with Ras was treated with 2,4,4-trimethyl-3-(15-hydroxypentadecyl)-2-cyclohexen-1-one (10^−6M) and then compared with the untreated cell. Non-transformed cell strains (treated and untreated) were used as controls.

In assay [6] the test system is Notch1. Kind of assay: Notch1 expression in cell strain transformed with Ras. Format: cell-based, mouse. As to conditions: fibroblast transformed with Ras, 10^−6M. The procedure:
as §4

Assay [7] concerns 3T3 Ras transformed fibroblast. The experiment in a line: Ex vivo test, tumor size after injection of 3T3 Ras transformed fibroblast into Swiss Nu/Nu mouse. It is filed as in vivo. As to conditions: cells pretreated 3 days, intraperitoneal on days 2, 8 and 15, FIG. 4. The procedure:
In a test tube for 3 days, 3T3 Ras transformed fibroblast (derived from mouse) or 3T3 fibroblast (derived from mouse) was treated with applying 50 μl (10^−3 M) of 2,4,4-trimethyl-3-(15-hydroxypentadecyl)-2-cyclohexen-1-one. The cell ([…]) was again suspended in 400 μl of DMEM medium and 200 μl thereof was injected into 7 weeks-old Swiss Nu/Nu mouse (male) symmetrically. On second, eighth, and fifteenth days after injection, 2,4,4-trimethyl-3-(15-hydroxypentadecyl)-2-cyclohexen-1-one was intraperitoneally administrated into mouse.

Consider `CC1=C(CCCCCCCCCCCCCCCO)C(C)(C)CCC1=O` [2,4,4-trimethyl-3-(15-hydroxypentadecyl)-2-cyclohexen-1-one], for which the “levels of mRNA of Notch1” value in assay [1] was “always decreased”. Besides, the “expression levels of the other Notch receptors (Notch 2 to 4)” value in assay [2] was “not changed”. Besides, in assay [3], the “levels of mRNA of HES5” value is “always decreased”. In assay [4], the “STAT3 phosphorylation (band of P-STAT3)” value is listed as “suppressed”. In assay [5], the “neoplastic foci of the cell strain transformed with Ras” value was “reduced”. In assay [6], the Notch1 expression entry is given as “decrease”. The tumor size result in assay [7] is reported as “reduced”.
